Results published in ChEMBL document CHEMBL1201862, “PubChem BioAssay data set” (2004).
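Cultured in 96-well plates, cells were exposed to test compound for 48 hours across five concentrations. At the GI50, growth is halved.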 Calls of active or inactive are those of the source. No stated cut-off is given here; in the data, active = GI50 up to about 1.1 µM and inactive = higher.

Columns and labels:
Test in all cases: inhibition of tumour cell growth, NCI panel, 48 h
786-0 = system: 786-0
CCRF-CEM = system: CCRF-CEM
EKVX = system: EKVX
HCT-15 = system: HCT-15
HL-60 = system: HL-60
HOP-62 = system: HOP-62
HOP-92 = system: HOP-92
Malme-3M = system: Malme-3M
OVCAR-3 = system: OVCAR-3
OVCAR-8 = system: OVCAR-8
RPMI-8226 = system: RPMI-8226
SF-295 = system: SF-295
SK-MEL-2 = system: SK-MEL-2
SNB-75 = system: SNB-75

Row | SMILES | GI50 (786-0) | GI50 (CCRF-CEM) | GI50 (EKVX) | GI50 (HCT-15) | GI50 (HL-60) | GI50 (HOP-62) | GI50 (HOP-92) | GI50 (Malme-3M) | GI50 (OVCAR-3) | GI50 (OVCAR-8) | GI50 (RPMI-8226) | GI50 (SF-295) | GI50 (SK-MEL-2) | GI50 (SNB-75)
1 | CCOc1cc2cnc3c4cc(OC)c(OC)cc4ccc3c2cc1OC | > 100 µM (inactive) | 23.8 µM (inactive) | > 100 µM (inactive) | > 100 µM | 40.2 µM (inactive) | > 100 µM (inactive) | > 100 µM (inactive) | 90.4 µM (inactive) | 29.9 µM (inactive) | 43.4 µM (inactive) | > 100 µM (inactive) | 26.4 µM (inactive) | 69 µM (inactive) | > 100 µM (inactive)
2 | O=C1C2C3SC(c4cc5ccccc5cc43)C2C(=O)N1c1ccccc1 (configuration not stated) | 50.8 µM (inactive) | > 100 µM (inactive) | > 100 µM (inactive) | > 100 µM | > 100 µM (inactive) | – | 30.1 µM (inactive) | 70.3 µM (inactive) | > 100 µM (inactive) | 90.6 µM (inactive) | > 100 µM (inactive) | > 100 µM (inactive) | 77.1 µM (inactive) | 19.8 µM (inactive)
3 | Cc1cccc(C)c1NC(=O)CCc1n[nH]c(=S)o1 | 71.9 µM (inactive) | > 100 µM (inactive) | > 100 µM (inactive) | 78.5 µM | > 100 µM (inactive) | > 100 µM (inactive) | > 100 µM (inactive) | > 100 µM (inactive) | > 100 µM (inactive) | > 100 µM (inactive) | 22.2 µM (inactive) | > 100 µM (inactive) | – | > 100 µM (inactive)
4 | COc1ccc(C(=O)C(C(=O)C(=O)Nc2ccc(Cl)c(Cl)c2)c2ccc(OC)cc2)cc1 (configuration not stated) | > 100 µM (inactive) | – | > 100 µM (inactive) | > 100 µM | 78.5 µM (inactive) | > 100 µM (inactive) | > 100 µM (inactive) | > 100 µM (inactive) | > 100 µM (inactive) | > 100 µM (inactive) | > 100 µM (inactive) | > 100 µM (inactive) | > 100 µM (inactive) | 57.5 µM (inactive)
5 | COc1cc(C2(C)SCCCS2)c(I)c(OC)c1OC | > 100 µM (inactive) | > 100 µM (inactive) | > 100 µM (inactive) | > 100 µM | > 100 µM (inactive) | > 100 µM (inactive) | > 100 µM (inactive) | > 100 µM (inactive) | > 100 µM (inactive) | > 100 µM (inactive) | > 100 µM (inactive) | > 100 µM (inactive) | > 100 µM (inactive) | > 100 µM (inactive)
6 | CC(=O)OC1C(CCl)OC(N=[N+]=[N-])C(OC(C)=O)C1OC(C)=O (configuration not stated) | > 100 µM (inactive) | > 100 µM (inactive) | > 100 µM (inactive) | > 100 µM | > 100 µM (inactive) | > 100 µM (inactive) | – | > 100 µM (inactive) | > 100 µM (inactive) | > 100 µM (inactive) | > 100 µM (inactive) | > 100 µM (inactive) | > 100 µM (inactive) | > 100 µM (inactive)
7 | O=C1CCN2C(=Nc3cccc4cccc2c34)N1 | 26.1 µM (inactive) | > 100 µM (inactive) | 0.551 µM (active) | > 100 µM | > 100 µM (inactive) | > 100 µM (inactive) | – | – | – | > 100 µM (inactive) | > 100 µM (inactive) | – | – | 76.9 µM (inactive)
8 | CP(C)C.[Ag][I] | > 100 µM (inactive) | 22 µM (inactive) | > 100 µM (inactive) | > 100 µM | > 100 µM (inactive) | > 100 µM (inactive) | 40.2 µM (inactive) | 39.6 µM (inactive) | > 100 µM (inactive) | 50 µM (inactive) | > 100 µM (inactive) | > 100 µM (inactive) | > 100 µM (inactive) | 20 µM (inactive)
9 | CCOC(=O)C1=C(O)C(=O)c2ccsc2C1=O | > 100 µM (inactive) | > 100 µM (inactive) | > 100 µM (inactive) | > 100 µM | > 100 µM (inactive) | > 100 µM (inactive) | > 100 µM (inactive) | > 100 µM (inactive) | > 100 µM (inactive) | > 100 µM (inactive) | > 100 µM (inactive) | > 100 µM (inactive) | > 100 µM (inactive) | > 100 µM (inactive)
10 | Cc1ccc(C2=Nc3ccccc3SC(c3cccc4c3OCO4)C2)cc1 (configuration not stated) | 19 µM (inactive) | 15.7 µM (inactive) | 21.1 µM (inactive) | 21.1 µM | 17.4 µM (inactive) | 33.1 µM (inactive) | – | 24.1 µM (inactive) | 14.8 µM (inactive) | 21.2 µM (inactive) | 17.7 µM (inactive) | 18.7 µM (inactive) | 20.3 µM (inactive) | 7.94 µM (inactive)
11 | O=C1CCCCCCCCCCOC(=O)CCCCCCCCCCO1 | > 100 µM (inactive) | > 100 µM (inactive) | > 100 µM (inactive) | > 100 µM | 21.8 µM (inactive) | > 100 µM (inactive) | > 100 µM (inactive) | > 100 µM (inactive) | > 100 µM (inactive) | > 100 µM (inactive) | – | > 100 µM (inactive) | > 100 µM (inactive) | > 100 µM (inactive)
12 | O=C(O)C1(c2ccccc2)CCCNCC1 (configuration not stated) | > 100 µM (inactive) | > 100 µM (inactive) | > 100 µM (inactive) | > 100 µM | – | > 100 µM (inactive) | > 100 µM (inactive) | > 100 µM (inactive) | > 100 µM (inactive) | > 100 µM (inactive) | > 100 µM (inactive) | > 100 µM (inactive) | > 100 µM (inactive) | > 100 µM (inactive)
13 | Cc1[nH]c2ccccc2c1C1=NO/C(=N\O)C(c2c(C)[nH]c3ccccc23)C1 (configuration not stated) | 40.7 µM (inactive) | 31.4 µM (inactive) | 27.3 µM (inactive) | 43 µM | 20.5 µM (inactive) | 21.7 µM (inactive) | 20.8 µM (inactive) | 53.2 µM (inactive) | 26.9 µM (inactive) | 56.5 µM (inactive) | 34.5 µM (inactive) | 36.7 µM (inactive) | 40 µM (inactive) | 43.2 µM (inactive)
14 | COC(=O)/C(=N\NC(=S)NN)C(C(=O)C(=O)Nc1ccccc1C(N)=O)c1nc2ccccc2nc1O (configuration not stated) | > 100 µM (inactive) | > 100 µM (inactive) | > 100 µM (inactive) | > 100 µM | – | – | 43.5 µM (inactive) | > 100 µM (inactive) | – | > 100 µM (inactive) | > 100 µM (inactive) | > 100 µM (inactive) | > 100 µM (inactive) | –
15 | O=C(O)c1nccnc1C(=O)O | > 100 µM (inactive) | > 100 µM (inactive) | > 100 µM (inactive) | > 100 µM | > 100 µM (inactive) | – | > 100 µM (inactive) | > 100 µM (inactive) | – | – | > 100 µM (inactive) | > 100 µM (inactive) | > 100 µM (inactive) | > 100 µM (inactive)
16 | OCn1nc2c(C3OCCO3)cc3ccccc3n2c1=S | > 100 µM (inactive) | > 100 µM (inactive) | > 100 µM (inactive) | > 100 µM | > 100 µM (inactive) | > 100 µM (inactive) | > 100 µM (inactive) | > 100 µM (inactive) | > 100 µM (inactive) | > 100 µM (inactive) | > 100 µM (inactive) | > 100 µM (inactive) | > 100 µM (inactive) | > 100 µM (inactive)
17 | O=C(Cc1nc2ccccc2s1)C(=O)Nc1ccc(Cl)cc1Cl | > 100 µM (inactive) | – | – | > 100 µM | – | 39.9 µM (inactive) | 65.8 µM (inactive) | > 100 µM (inactive) | > 100 µM (inactive) | > 100 µM (inactive) | > 100 µM (inactive) | > 100 µM (inactive) | > 100 µM (inactive) | 47.4 µM (inactive)
18 | CC(=O)OC1CC2C(C)(C)C(=O)C=C[C@]2(C)C2CCC3(C)C(c4ccoc4)C(=O)C4OC43[C@]12C (some centres not stated) | 25.9 µM (inactive) | 20.8 µM (inactive) | 40.5 µM (inactive) | 14.4 µM | 12.4 µM (inactive) | 27.8 µM (inactive) | 15.8 µM (inactive) | 15.2 µM (inactive) | 18.3 µM (inactive) | 20.8 µM (inactive) | 2.77 µM (inactive) | 16.9 µM (inactive) | 16 µM (inactive) | 22.4 µM (inactive)
19 | C=C[C@@]12CCCCC1C/C(=C(/O)OC)C(=O)C2 (some centres not stated) | > 100 µM (inactive) | > 100 µM (inactive) | > 100 µM (inactive) | – | > 100 µM (inactive) | > 100 µM (inactive) | > 100 µM (inactive) | – | > 100 µM (inactive) | > 100 µM (inactive) | > 100 µM (inactive) | > 100 µM (inactive) | > 100 µM (inactive) | > 100 µM (inactive)
20 | COc1cccc(-c2cc(O)c3ccccc3n2)c1 | 5.25 µM (inactive) | 4.56 µM (inactive) | 52.2 µM (inactive) | 4.7 µM | 2.98 µM (inactive) | 8.18 µM (inactive) | – | 3.89 µM (inactive) | 4.2 µM (inactive) | 6.24 µM (inactive) | 5.45 µM (inactive) | 2.81 µM (inactive) | 24.9 µM (inactive) | 4.98 µM (inactive)
21 | COc1cccc(/C=C(/C(=O)O)c2cc(OC)c(OC)c(OC)c2)c1 | > 100 µM (inactive) | 46.5 µM (inactive) | > 100 µM (inactive) | > 100 µM | 66.5 µM (inactive) | > 100 µM (inactive) | 92.3 µM (inactive) | > 100 µM (inactive) | > 100 µM (inactive) | > 100 µM (inactive) | > 100 µM (inactive) | > 100 µM (inactive) | – | > 100 µM (inactive)
22 | COc1ccc2[nH]cc(CCNC(C)=O)c2c1 [MELATONIN] | 88.5 µM (inactive) | > 100 µM (inactive) | > 100 µM (inactive) | 77.4 µM | > 100 µM (inactive) | > 100 µM (inactive) | > 100 µM (inactive) | > 100 µM (inactive) | > 100 µM (inactive) | > 100 µM (inactive) | 22.1 µM (inactive) | > 100 µM (inactive) | > 100 µM (inactive) | > 100 µM (inactive)
